Source: patent US20230265151A1, “GIP/GLP1 CO-AGONIST COMPOUNDS” (priority 2020, published 2023)
Like-named read-outs stand apart in the source and are kept apart here.

What was measured:
[1] = target: T1, human GLP-1 receptor (hGLP-1R) (Homo sapiens, UniProt P43220); assay: [125I]-GLP-1 binding, SPA with membranes of HEK293 cells expressing hGLP-1R
T1 construct: expressed in transfected cells; crude membranes

[2] = target: T2, human GIP receptor (hGIPR) (Homo sapiens, UniProt P48546); assay: [125I]-GIP binding, SPA with membranes of CHO cells expressing hGIPR
T2 construct: expressed in transfected cells; crude membranes
T2 sequence (P48546 22-466): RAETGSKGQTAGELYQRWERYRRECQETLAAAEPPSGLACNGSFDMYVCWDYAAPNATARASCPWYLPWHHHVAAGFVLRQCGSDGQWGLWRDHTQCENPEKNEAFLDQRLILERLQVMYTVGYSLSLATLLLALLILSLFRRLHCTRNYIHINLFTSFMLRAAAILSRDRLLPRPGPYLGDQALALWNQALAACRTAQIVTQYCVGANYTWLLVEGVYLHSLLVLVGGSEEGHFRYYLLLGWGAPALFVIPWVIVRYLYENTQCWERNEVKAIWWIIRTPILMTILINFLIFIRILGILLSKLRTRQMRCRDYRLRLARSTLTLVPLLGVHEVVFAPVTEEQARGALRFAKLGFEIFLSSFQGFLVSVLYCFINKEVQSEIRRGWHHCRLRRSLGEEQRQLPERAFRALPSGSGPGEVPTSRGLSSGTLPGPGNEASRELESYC

[3] = target: T3, hGIPR (Homo sapiens, UniProt P48546); assay: Functional cAMP formation (HTRF) in HEK-293 clonal cells expressing hGIPR, 0.1% bovine casein, without or with 1.0% human serum albumin; assay type: cell-based; conditions: 37° C.; for EC50: cAMP; for Emax: HEK293, cAMP, percent of maximal response to GIP(1-42)NH2, read-out: hGIPR Emax, % ± SEM
T3 construct: expressed in transfected cells
T3 sequence (P48546 22-466): T2 sequence (P48546 22-466)
In short: (§1)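 Readings of the HTRF 665/620 nm ratio, which falls as cAMP rises, were converted to nM cAMP using a standard curve after 30 min peptide exposure at 37° C.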

[4] = target: T4, hGCGR (Homo sapiens, UniProt P47871); assay: Functional cAMP formation (HTRF) in HEK-293 clonal cells expressing hGCGR, 0.1% bovine casein, without or with 1.0% human serum albumin; assay type: cell-based; conditions: cAMP, 37° C.
T4 construct: expressed in transfected cells
In short: as §1

[5] = target: hGLP-1R (Homo sapiens, UniProt P43220); assay: Functional cAMP formation (HTRF) in HEK-293 clonal cells expressing hGLP-1R, 0.1% bovine casein, without or with 1.0% human serum albumin; assay type: cell-based; design: expressed in transfected cells; conditions: for Emax: percent of maximal response to GLP-1(7-36)NH2; for EC50: cAMP
In short: as §1

[6] = human GLP-1R, geometric mean (SEM, n), read-out: Binding Affinity Ki, nM (SEM, n) hGLP-1R
[7] = human GIPR, geometric mean (SEM, n), read-out: Binding Affinity Ki, nM (SEM, n) hGIPR
[8] = 0.1% bovine casein and 1.0% human serum albumin
[9] = 0.1% bovine casein (no human serum albumin), geometric mean, read-out: hGIPR EC50, nM (SEM, n)
[10] = 0.1% bovine casein and 1.0% human serum albumin, geometric mean (SEM, n), read-out: hGIPR EC50, nM (SEM, n)
[11] = 0.1% bovine casein (no human serum albumin), geometric mean, read-out: hGCGR EC50, nM (SEM, n)
[12] = 0.1% bovine casein and 1.0% human serum albumin, geometric mean (SEM, n), read-out: hGCGR EC50, nM (SEM, n)
[13] = HEK293, cAMP, 37° C., 0.1% bovine casein, arithmetic mean, read-out: hGLP-1R Emax, % ± SEM
[14] = 37° C., 0.1% bovine casein (no human serum albumin), geometric mean, read-out: hGLP-1R EC50, nM (SEM, n)

hGLP-1R, sequence (P43220 24-463): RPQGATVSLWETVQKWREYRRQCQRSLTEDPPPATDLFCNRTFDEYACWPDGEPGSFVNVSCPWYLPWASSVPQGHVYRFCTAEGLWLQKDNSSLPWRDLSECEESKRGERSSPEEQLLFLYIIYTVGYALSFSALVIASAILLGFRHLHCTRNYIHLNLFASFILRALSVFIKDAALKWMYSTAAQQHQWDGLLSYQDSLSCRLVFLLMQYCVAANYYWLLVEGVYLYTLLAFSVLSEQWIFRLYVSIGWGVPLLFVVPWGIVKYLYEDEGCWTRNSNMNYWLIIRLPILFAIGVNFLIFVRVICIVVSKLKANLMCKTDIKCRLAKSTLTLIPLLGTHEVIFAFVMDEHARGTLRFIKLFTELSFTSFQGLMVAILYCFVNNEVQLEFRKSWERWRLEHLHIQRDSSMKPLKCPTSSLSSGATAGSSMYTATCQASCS
T1 sequence (P43220 24-463): as above
T4 sequence (P47871 26-477): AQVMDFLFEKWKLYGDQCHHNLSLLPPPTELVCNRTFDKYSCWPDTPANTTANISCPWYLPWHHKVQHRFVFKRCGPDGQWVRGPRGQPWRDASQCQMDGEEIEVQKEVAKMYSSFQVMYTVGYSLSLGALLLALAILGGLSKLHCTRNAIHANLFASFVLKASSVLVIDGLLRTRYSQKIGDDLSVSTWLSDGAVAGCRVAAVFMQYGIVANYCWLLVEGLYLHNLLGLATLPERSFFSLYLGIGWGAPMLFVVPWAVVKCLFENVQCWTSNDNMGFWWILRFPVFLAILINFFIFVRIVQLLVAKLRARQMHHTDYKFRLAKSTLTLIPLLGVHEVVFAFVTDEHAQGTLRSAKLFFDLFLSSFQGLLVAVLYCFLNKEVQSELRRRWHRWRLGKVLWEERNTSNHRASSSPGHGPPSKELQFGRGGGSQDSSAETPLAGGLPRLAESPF

Compound	Ki [1]	Ki [2]	EC50 ([3]; hGIPR EC50, nM (SEM, n), 0.1% bovine casein (no human serum albumin), geometric mean)	EC50 ([4]; hGCGR EC50, nM (SEM, n), 0.1% bovine casein (no human serum albumin), geometric mean)	EC50 ([4]; hGCGR EC50, nM (SEM, n), 0.1% bovine casein and 1.0% human serum albumin, geometric mean (SEM, n))	Emax ([5]; HEK293, read-out: hGLP-1R Emax, % ± SEM, cAMP, 37° C., 0.1% bovine casein and 1.0% human serum albumin)	Emax ([5]; HEK293, read-out: hGLP-1R Emax, % ± SEM, cAMP, 37° C., 0.1% bovine casein, arithmetic mean)	EC50 ([5]; hGLP-1R EC50, nM (SEM, n), 37° C., 0.1% bovine casein (no human serum albumin), geometric mean)	Ki [1, 6]	Ki [2, 7]	Emax [3, 8]	EC50 [3, 9]	EC50 [3, 10]	EC50 [4, 11]	EC50 [4, 12]	Emax ([5]; HEK293, cAMP, 37° C., 0.1% bovine casein and 1.0% human serum albumin, read-out: hGLP-1R Emax, % ± SEM)	Emax [5, 13]	EC50 [5, 14]	EC50 ([5]; 37° C., 0.1% bovine casein and 1.0% human serum albumin, geometric mean (SEM, n), read-out: hGLP-1R EC50, nM (SEM, n))
CC[C@H](C)[C@H](NC(=O)[C@H](CC(C)C)NC(=O)[C@](C)(Cc1ccc(O)cc1)NC(=O)[C@@H](CCC(=O)O)NC(=O)[C@@H](NC(=O)[C@H](Cc1ccccc1)NC(=O)[C@H](CCCCNC(=O)COCCOCCNC(=O)CC[C@H](NC(=O)CCCCCCCCCOc1ccc(C(=O)O)cc1)C(=O)O)NC(=O)C(C)(C)NC(=O)[C@H](CCC(N)=O)NC(=O)[C@H](C)NC(=O)[C@H](CCCCNC(=O)COCCOCCNC(=O)CC[C@H](NC(=O)CCCCCCCCCOc1ccc(C(=O)O)cc1)C(=O)O)NC(=O)[C@H](CCCN)NC(=O)[C@H](CC(=O)O)NC(=O)[C@H](CC(C)C)NC(=O)[C@](C)(CC(C)C)NC(=O)[C@@H](NC(=O)C(C)(C)NC(=O)[C@H](Cc1ccncc1)NC(=O)[C@H](CC(=O)O)NC(=O)[C@H](CO)NC(=O)[C@@H](NC(=O)[C@](C)(Cc1ccccc1F)NC(=O)[C@@H](NC(=O)CNC(=O)[C@H](CCC(=O)O)NC(=O)C(C)(C)NC(=O)[C@@H](N)Cc1ccc(O)cc1)[C@@H](C)O)[C@@H](C)O)[C@@H](C)CC)[C@@H](C)CC)C(=O)N[C@@H](CCC(=O)O)C(=O)NCC(=O)NCC(=O)N1CCC[C@H]1C(=O)N[C@@H](CO)C(=O)N[C@@H](CO)C(=O)NCC(=O)N[C@@H](C)C(=O)N1CCC[C@H]1C(=O)N1CCC[C@H]1C(=O)N1CCC[C@H]1C(=O)N[C@@H](CO)C(N)=O [Example 360]	0.673 nM	0.046 nM	0.0121 nM	> 9950 nM	> 9950 nM	97.1%	89.8%	0.301 nM	–	–	–	–	–	–	–	–	–	–	–
CCCCCCCCCCCC(=O)N[C@@H](CCC(=O)NCCOCCOCC(=O)NCCOCCOCC(=O)NCCCC[C@H](NC(=O)[C@H](CCCN)NC(=O)[C@H](CC(=O)O)NC(=O)[C@H](CC(C)C)NC(=O)[C@](C)(CC(C)C)NC(=O)[C@@H](NC(=O)C(C)(C)NC(=O)[C@H](Cc1ccncc1)NC(=O)[C@H](CC(=O)O)NC(=O)[C@H](CO)NC(=O)[C@@H](NC(=O)[C@](C)(Cc1ccccc1F)NC(=O)[C@@H](NC(=O)CNC(=O)[C@H](CCC(=O)O)NC(=O)C(C)(C)NC(=O)[C@@H](N)Cc1ccc(O)cc1)[C@@H](C)O)[C@@H](C)O)[C@@H](C)CC)C(=O)N[C@@H](C)C(=O)N[C@@H](CCC(N)=O)C(=O)NC(C)(C)C(=O)N[C@H](C(=O)N[C@@H](Cc1ccccc1)C(=O)N[C@H](C(=O)N[C@H](CCC(=O)O)C(=O)N[C@@](C)(Cc1ccc(O)cc1)C(=O)N[C@@H](CC(C)C)C(=O)N[C@H](C(=O)N[C@@H](CCCCNC(=O)COCCOCCNC(=O)COCCOCCNC(=O)CC[C@H](NC(=O)CCCCCCCCCCC)C(=O)O)C(=O)NCC(=O)NCC(=O)N1CCC[C@H]1C(=O)N[C@@H](CO)C(=O)N[C@@H](CO)C(=O)NCC(=O)N[C@@H](C)C(=O)N1CCC[C@H]1C(=O)N1CCC[C@H]1C(=O)N1CCC[C@H]1C(=O)N[C@@H](CO)C(N)=O)[C@@H](C)CC)[C@@H](C)CC)[C@@H](C)O)C(=O)O [Example 419]	–	–	–	–	–	–	–	–	0.265 nM	0.0166 nM	88.2%	0.00958 nM	0.44 nM	> 9950 nM	> 9950 nM	97.3%	113%	0.132 nM	–
CCCCCCCCCCCC(=O)N[C@@H](CCC(=O)NCCOCCOCC(=O)NCCOCCOCC(=O)NCCCC[C@H](NC(=O)[C@H](CCCN)NC(=O)[C@H](CC(=O)O)NC(=O)[C@H](CC(C)C)NC(=O)[C@](C)(CC(C)C)NC(=O)[C@@H](NC(=O)C(C)(C)NC(=O)[C@H](Cc1ccncc1)NC(=O)[C@H](CC(=O)O)NC(=O)[C@H](CO)NC(=O)[C@@H](NC(=O)[C@](C)(Cc1ccccc1F)NC(=O)[C@@H](NC(=O)CNC(=O)[C@H](CCC(=O)O)NC(=O)C(C)(C)NC(=O)[C@@H](N)Cc1ccc(O)cc1)[C@@H](C)O)[C@@H](C)O)[C@@H](C)CC)C(=O)N[C@@H](C)C(=O)N[C@@H](CCC(N)=O)C(=O)NC(C)(C)C(=O)N[C@@H](CCCN)C(=O)N[C@@H](Cc1ccccc1)C(=O)N[C@H](C(=O)N[C@H](CCC(=O)O)C(=O)N[C@@](C)(Cc1ccc(O)cc1)C(=O)N[C@@H](CC(C)C)C(=O)N[C@H](C(=O)N[C@@H](CCCCNC(=O)COCCOCCNC(=O)COCCOCCNC(=O)CC[C@H](NC(=O)CCCCCCCCCCC)C(=O)O)C(=O)NCC(=O)NCC(=O)N1CCC[C@H]1C(=O)N[C@@H](CO)C(=O)N[C@@H](CO)C(=O)NCC(=O)N[C@@H](C)C(=O)N1CCC[C@H]1C(=O)N1CCC[C@H]1C(=O)N1CCC[C@H]1C(=O)N[C@@H](CO)C(N)=O)[C@@H](C)CC)[C@@H](C)CC)C(=O)O [Example 414]	–	–	–	–	–	–	–	–	0.194 nM	0.0229 nM	92.2%	0.00961 nM	0.274 nM	> 9950 nM	> 9950 nM	–	–	0.119 nM	–
CCCCCCCCCCCC(=O)N[C@@H](CCC(=O)NCCOCCOCC(=O)NCCOCCOCC(=O)NCCCC[C@H](NC(=O)[C@H](CCCN)NC(=O)[C@H](CC(=O)O)NC(=O)[C@H](CC(C)C)NC(=O)[C@](C)(CC(C)C)NC(=O)[C@@H](NC(=O)C(C)(C)NC(=O)[C@H](CCCCNC(=O)COCCOCCNC(=O)COCCOCCNC(=O)CC[C@H](NC(=O)CCCCCCCCCCC)C(=O)O)NC(=O)[C@H](CC(=O)O)NC(=O)[C@H](CO)NC(=O)[C@@H](NC(=O)[C@](C)(Cc1ccccc1F)NC(=O)[C@@H](NC(=O)CNC(=O)[C@H](CCC(=O)O)NC(=O)C(C)(C)NC(=O)[C@@H](N)Cc1ccc(O)cc1)[C@@H](C)O)[C@@H](C)O)[C@@H](C)CC)C(=O)N[C@@H](C)C(=O)N[C@@H](CCC(N)=O)C(=O)NC(C)(C)C(=O)N[C@@H](CCCN)C(=O)N[C@@H](Cc1ccccc1)C(=O)N[C@H](C(=O)N[C@H](CCC(=O)O)C(=O)N[C@@](C)(Cc1ccc(O)cc1)C(=O)N[C@@H](CC(C)C)C(=O)N[C@H](C(=O)N[C@@H](CCC(=O)O)C(=O)NCC(=O)NCC(=O)N1CCC[C@H]1C(=O)N[C@@H](CO)C(=O)N[C@@H](CO)C(=O)NCC(=O)N[C@@H](C)C(=O)N1CCC[C@H]1C(=O)N1CCC[C@H]1C(=O)N1CCC[C@H]1C(=O)N[C@@H](CO)C(N)=O)[C@@H](C)CC)[C@@H](C)CC)C(=O)O [Example 417]	–	–	–	–	–	–	–	–	0.167 nM	0.0214 nM	96.4%	0.00651 nM	–	> 9950 nM	> 9950 nM	–	109%	0.0675 nM	2.66 nM
